Experimental data reported in patent publication US12612403B2, “Nitrogen-containing heterocyclic derivative inhibitor, and preparation method therefor and use thereof” (SHANGHAI HANSOH BIOMEDICAL CO., LTD., priority 2024, dated 2026).

Test system: PCSK9 secreted by HepG2 cells
Assay: Effect on the concentration of PCSK9 secreted by HepG2 cells (ELISA)
Assay type: cell-based
Settings: Homo sapiens, 48 hours, PCSK9 in culture medium by ELISA
Description: 1. Experimental objective: To detect the inhibitory effect of the compounds on PCSK9.
2. Experimental method: • 1) HepG2 cell strain was cultured in the complete culture medium at 37° C., 5% CO2 to 70-90% confluence. • 2) The cells were digested and resuspended in the experimental culture medium, inoculated at 25,000 cells/well/200 μL in a 96-well cell culture plate, and cultured at 37° C. and 5% CO2 for 20-24 hours. • 3) The culture medium was removed from the cell culture plate, and the cell culture plate was washed once by adding 200 ul of the experimental culture medium to each well. • 4) Preparation of positive control compound and compound to be tested: the positive control compound and the compound to be tested were diluted on the compound plate. • 5) The diluted compound was added to the cell culture plate at 250 μL per well and incubated at 37° C. and 5% CO2 for 48 hours. • 6) The cell culture medium was collected at 200 μL per well and cryopreserved at −80° C. for later use. • 7) A sample of the cell culture medium was taken from the −80° C. cryopreservation condition, dissolved, vortexed, and centrifuged for later use. • 8) Preparation of standard curve: corresponding volumes of Dilution buffer were successively added to respective standard tubes, and in the order of the concentrations of 10, 5, 2.5, 1.25, 0.625, 0.313, 0.16, 0 ng/mL, the standard was diluted in series by taking the corresponding volume from the original tube or the last concentration tube. • 9) Preparation of washing liquid: 10x Wash buffer was diluted into 1x with Milli-Q for later use. • 10) According to the standard curve wells and sample wells set according to a plate map, 100 μL/well of the corresponding standards and culture medium samples were added to the wells, with 2 replicate wells. A self-adhesive seal was applied, the plate was placed on a plate shaker at room temperature, gently shaken, uniformly mixed, and incubated for 1 hour. • 11) The plate was placed on the plate washer, the washing liquid was set to 350 μL per well, and the plate was washed 4 times repeatedly. • 12) 100 μL/well of an HRP-conjugated detection antibody was added, a self-adhesive seal was applied, and the plate was placed on the plate shaker, well mixed uniformly, and incubated for 1 hour. • 13) The plate was placed on the plate washer, the washing liquid was set to 350 μL per well, and the plate was washed 4 times repeatedly. • 14) 100 μL/well of Substrate reagent was added, and the plate was placed in the dark, applied with a self-adhesive seal, placed on the plate shaker, well mixed uniformly, and incubated for 10-20 minutes. • 15) 100 μL of Stop solution (1N H2SO4) was added to each well and mixed uniformly. • 16) The optical density (OD) value in each well was measured in sequence at a wavelength of 450 nm by the microplate reader. Detection was carried out within 30 min after the reaction was stopped.
3. Experimental data processing method: After the OD values were read by the microplate reader, the OD value of the 0-concentration standard in the standard group was subtracted from the OD values of the standards, control group, and samples to obtain the actual OD values for these wells. A standard curve was plotted with Graphpad and the concentration of the sample was calculated. If the dilution was performed during the sample detection, the calculated sample concentration was necessarily multiplied by the corresponding dilution ratio in the final calculation, which was the actual concentration of the sample. Inhibition rate=(actual concentration in control−actual concentration in sample)/actual concentration in control*100. According to the inhibition rates corresponding to the different concentrations, IC50 was derived by Graphpad.

Compound	IC50 [µM]
O=C1c2cccc(C(F)(F)F)c2CN1c1ccc(N[C@H]2CC[C@H](Nc3nc4cc(F)ccn4n3)C2)nc1 [Example 26]	22.8
O=C1c2ncc(F)cc2CN1c1ccc(N[C@H]2CC[C@H](Nc3nc4cc(C(F)(F)F)ccn4n3)C2)nc1 [Example 27, 3-Fluoro-6-(6-(((1S,3S)-3-((7-(trifluoromethyl)-[1,2,4]triazolo[1,5-a]pyridin-2-yl)amino)cyclopentyl)amino)pyridin-3-yl)-5,6-dihydro-7H-pyrrolo[3,4-b]pyridin-7-one]	12
CC(C)(C)c1ccc2c(n1)C(=O)N(c1ccc(N[C@H]3CC[C@H](Nc4nc5cc(F)ccn5n4)C3)nc1)C2 [Example 49, 2-(Tert-butyl)-6-(6-(((1S,3S)-3-((7-fluoro-[1,2,4]triazolo[1,5-a]pyridin-2-yl)amino)cyclopentyl)amino)pyridin-3-yl)-5,6-dihydro-7H-pyrrolo[3,4-b]pyridin-7-one]	2.7
Cc1cc2c(c(C)n1)CN(c1ccc(N[C@H]3CC[C@H](Nc4nc5cc(F)ccn5n4)C3)nc1)C2=O [Example 51, 2-(6-(((1S,3S)-3-((7-fluoro-[1,2,4]triazolo[1,5-a]pyridin-2-yl)amino)cyclopentyl)amino)pyridin-3-yl)-4,6-dimethyl-2,3-dihydro-1H-pyrrolo[3,4-c]pyridin-1-one]	21.3
O=C1N(c2ccc(N[C@H]3CC[C@H](Nc4nc5cc(F)ccn5n4)C3)nc2)CCC12CC2 [Example 54, 5-(6-(((1S,3S)-3-((7-fluoro-[1,2,4]triazolo[1,5-a]pyridin-2-yl)amino)cyclopentyl)amino)pyridin-3-yl)-5-azaspiro[2.4]heptan-4-one]	23.4
Cc1nccc2c1CN(c1ccc(N[C@H]3CC[C@H](Nc4nc5cc(C(F)(F)F)ccn5n4)C3)nc1)C2=O [Example 57, 4-methyl-2-(6-(((1S,3S)-3-((7-(trifluoromethyl)-[1,2,4]triazolo[1,5-a]pyridin-2-yl)amino)cyclopentyl)amino)pyridin-3-yl)-2,3-dihydro-1H-pyrrolo[3,4-c]pyridin-1-one]	1.7
O=C1N(c2ccc(N[C@H]3CC[C@H](Nc4nc5cc(C(F)(F)F)ccn5n4)C3)nc2)CCC12CC2 [Example 58, 5-(6-(((1S,3S)-3-((7-(trifluoromethyl)-[1,2,4]triazolo[1,5-a]pyridin-2-yl)amino)cyclopentyl)amino)pyridin-3-yl)-5-azaspiro[2.4]heptan-4-one]	11.1
Cc1cccnc1C(=O)Nc1ccc(N[C@H]2CC[C@H](Nc3nc4cc(C(F)(F)F)ccn4n3)C2)nc1 [Example 60]	27.4
O=C1c2cc(F)cnc2CN1c1ccc(N[C@H]2CC[C@H](Nc3nc4cc(C(F)(F)F)ccn4n3)C2)nc1 [Example 61, 3-fluoro-6-(6-(((1S,3S)-3-((7-(trifluoromethyl)-[1,2,4]triazolo[1,5-a]pyridin-2-yl)amino)cyclopentyl)amino)pyridin-3-yl)-6,7-dihydro-5H-pyrrolo[3,4-b]pyridin-5-one]	0.6
CN(Cc1ccc(N[C@H]2CC[C@H](Nc3nc4cc(C(F)(F)F)ccn4n3)C2)nc1)C(=O)c1ccccn1 [Example 62, N-methyl-N-(6-(((1S,3S)-3-((7-(trifluoromethyl)-[1,2,4]triazolo[1,5-a]pyridin-2-yl)amino)cyclopentyl)amino)pyridin-3-yl)methylpicolinamide]	17.6
CC(C)(O)c1cccn(-c2ccc(N[C@H]3CC[C@H](Nc4nc5cc(C(F)(F)F)ccn5n4)C3)nc2)c1=O [Example 63, 3-(2-hydroxypropan-2-yl)-6′-(((1S,3S)-3-((7-(trifluoromethyl)-[1,2,4]triazolo[1,5-a]pyridin-2-yl)amino)cyclopentyl)amino)-2H-[1,3′-bipyridine]-2-one]	26.5
N#Cc1cc2c(cn1)CN(c1ccc(N[C@H]3CC[C@H](Nc4nc5cc(C(F)(F)F)ccn5n4)C3)nc1)C2=O [Example 66, 1-carbonyl-2-(6-(((1S,3S)-3-((7-(trifluoromethyl)-[1,2,4]triazolo[1,5-a]pyridin-2-yl)amino)cyclopentyl)amino)pyridin-3-yl)-2,3-dihydro-1H-pyrrolo[3,4-c]pyridine-6-carbonitrile]	0.8
Cc1ccc2c(n1)CN(c1ccc(N[C@H]3CC[C@H](Nc4nc5cc(C(F)(F)F)ccn5n4)C3)nc1)C2=O [Example 67, 2-methyl-6-(6-(((1S,3S)-3-((7-(trifluoromethyl)-[1,2,4]triazolo[1,5-a]pyridin-2-yl)amino)cyclopentyl)amino)pyridin-3-yl)-6,7-dihydro-5H-pyrrolo[3,4-b]pyridin-5-one]	17.1
O=c1[nH]cccc1-c1ccc(N[C@H]2CC[C@H](Nc3nc4cc(C(F)(F)F)ccn4n3)C2)nc1 [Example 73, 6′-(((1S,3S)-3-((7-(trifluoromethyl)-[1,2,4]triazolo[1,5-a]pyridin-2-yl)amino)cyclopentyl)amino)-[3,3′-bipyridine]-2(1H)-one]	14.3
CC(C)(O)c1ccn(-c2ccc(N[C@H]3CC[C@H](Nc4nc5cc(C(F)(F)F)ccn5n4)C3)nc2)c(=O)c1 [Example 81, 4-(2-hydroxypropan-2-yl)-6′-(((1S,3S)-3-((7-(trifluoromethyl)-[1,2,4]triazolo[1,5-a]pyridin-2-yl)amino)cyclopentyl)amino)-2H-[1,3′-bipyridine]-2-one]	26.5
Cc1ccc2c(c1)CN(c1ccc(N[C@H]3CC[C@H](Nc4nc5cc(C(F)(F)F)ccn5n4)C3)nc1)C2=O [Example 85, 5-methyl-2-(6-(((1S,3S)-3-((7-(trifluoromethyl)-[1,2,4]triazolo[1,5-a]pyridin-2-yl)amino)cyclopentyl)amino)pyridin-3-yl)isoindolin-1-one]	2.6
O=C1c2ccc(F)cc2CN1c1ccc(N[C@H]2CC[C@H](Nc3nc4cc(C(F)(F)F)ccn4n3)C2)nc1 [Example 86, 5-fluoro-2-(6-(((1S,3S)-3-((7-(trifluoromethyl)-[1,2,4]triazolo[1,5-a]pyridin-2-yl)amino)cyclopentyl)amino)pyridin-3-yl)isoindolin-1-one]	0.9
Cn1c2ccccc2c(=O)n1-c1ccc(N[C@H]2CC[C@H](Nc3nc4cc(C(F)(F)F)ccn4n3)C2)nc1 [Example 87]	0.6
Cc1cc2c(c(C#N)n1)CN(c1ccc(N[C@H]3CC[C@H](Nc4nc5cc(C(F)(F)F)ccn5n4)C3)nc1)C2=O [Example 90, 6-methyl-1-carbonyl-2-(6-(((1S,3S)-3-((7-(trifluoromethyl)-[1,2,4]triazolo[1,5-a]pyridin-2-yl)amino)cyclopentyl)amino)pyridin-3-yl)-2,3-dihydro-1H-pyrrolo[3,4-c]pyridine-4-carbonitrile]	2.7
O=C1c2ncc(Cl)cc2CN1c1ccc(N[C@H]2CC[C@H](Nc3nc4cc(C(F)(F)F)ccn4n3)C2)nc1 [Example 95]	0.7
N#Cc1cnc2c(c1)CN(c1ccc(N[C@H]3CC[C@H](Nc4nc5cc(C(F)(F)F)ccn5n4)C3)nc1)C2=O [Example 96]	12.7
Cc1nccc2c1CN(c1ccc(N[C@H]3CC[C@H](Nc4nc5cc(OC(F)F)ccn5n4)C3)nc1)C2=O [Example 100]	5
O=c1nc(O)ccn1-c1ccc(N[C@H]2CC[C@H](Nc3nc4cc(Cl)ccn4n3)C2)nc1 [Example 103]	1.4
Cc1cc(N[C@H]2CC[C@H](Nc3nc4cc(C(F)(F)F)ccn4n3)C2)ncc1N1Cc2cccnc2C1=O [Example 113]	6.9
O=C1c2cccnc2CN1c1cnc(N[C@H]2CC[C@H](Nc3nc4cc(C(F)(F)F)ccn4n3)C2)c(F)c1 [Example 162]	5.3
O=c1ccccn1-c1ccc(N[C@H]2CC[C@H](Nc3nc4cc(C(F)(F)F)ccn4n3)C2)nc1 [Example 426]	14
O=c1ccccn1-c1ccc(N[C@H]2CC[C@H](Nc3nc4cc(C5CC5)ccn4n3)C2)nc1 [Example 427]	22.3
